In US10875829B1, “Azetidine derivatives useful as modulators of cortical catecholaminergic neurotransmission” (Integrative Research Laboratories Sweden AB, priority 2016, dated 2020):
Where a name gives a salt, the structure may show the parent alone. Read-outs that look alike come from different tables or passages of the source. Marks after values point to notes of the source that are not given here.

Legend:
[1] = system: non-pre-treated Sprague-Dawley rats; experiment: Locomotor activity in drug-naïve rats (behavioural activity, distance traveled 0-60 min); assay type: in vivo; details: for locomotor activity: recorded for 60 minutes, control saline, n=5
Method: The effect of compounds in the present disclosure on locomotor activity in drug-naïve rats was also investigated. The animals were placed in the motility meters immediately after drug administration and locomotor activity was recorded for 60 minutes (counts/60 min±SEM). The results are presented as percent of control.
Behavioural activity was measured using eight Digiscan activity monitors (RXYZM (16) TAO, Omnitech Electronics, Columbus, Ohio, USA), connected to an Omnitech Digiscan analyzer and an Apple Macintosh computer equipped with a digital interface board (NB D10-24, National Instruments, USA). Each activity monitor consisted of a quadratic metal frame (W×L=40 cm×40 cm) equipped with photo beam sensors. During measurements of behavioural activity, a rat was put in a transparent acrylic cage (W×L×H, 40×40×30 cm) which in turn was placed in the activity monitor. Each activity monitor was equipped with three rows of infrared photo beam sensors, each row consisting of 16 sensors. Two rows were placed along the front and the side of the floor of the cage, at a 90° angle, and the third row was placed 10 cm above the floor to measure vertical activity. Photo beam sensors were spaced 2.5 cm apart. Each activity monitor was fitted in an identical sound and light attenuating box containing a weak house light and a fan.
The computer software was written using object oriented programming (LabVIEW™, National instruments, Austin, Tex., USA).
Behavioural data from each activity monitor, representing the position (horizontal center of gravity and vertical activity) of the animal at each time, were recorded at a sampling frequency of 25 Hz and collected using a custom written LABView™ application. The data from each recording session were stored and analyzed with respect to distance traveled. Each behavioural recording session lasted 60 min, starting approximately 5 min after the injection of test compound.
Compounds disclosed herein have been tested for effects on spontaneous locomotor activity in non-pre-treated Sprague-Dawley rats (based on accumulated distance traveled 0-60 min post dosing), and with doses up to 100 μmol/kg (s.c.).
The animals were placed in the motility meters immediately after drug administration and locomotor activity was recorded for 60 minutes (counts/60 min). Results are presented as percent of control means. Statistical significance was assessed using Student's t-test (2 tailed) vs controls. * denotes p<0.05, ** p<0.01, *** p<0.001, n=5.

NA, DA and 5-HT = experiment: In vivo brain microdialysis: extracellular monoamines in striatum and frontal cortex; set-up: species or system Sprague-Dawley rats; details: for response vs control in vivo at 50 µmol/kg / response vs control in vivo at 16.7 µmol/kg: Rattus norvegicus, sc
Description: The microdialysis technique is a well-established technique for measuring extracellular levels of neurotransmitters (Ungerstedt, J Int Med, 1991, 230; 365-73). The microdialysis technique was used to measure the effect of compounds disclosed herein upon the efflux of monoamine transmitters (NA, DA and 5-HT) in striatum and frontal cortex in conscious, freely moving rats.
Male Sprague-Dawley rats weighing 280-320 g were used throughout the experiments. Before the experiment the animals were housed in groups, maximum five animals in each cage, with free access to water and food. The animals were housed at least one week prior to surgery and use in the experiments.
A modified version (Waters et al., J Neural Transm Gen Sect, 1994, 98(1); 39-55) of the !-shaped probe (Santiago and Westerink, N-S Arch Pharmacol, 1990, 342; 407-14) with the AN69 polyacrylonitrile/sodium methyl sulfonate copolymer (HOSPAL; o.d/i.d. 310/220 μm: dialysis membrane (Gambro, Lund, Sweden) was used in the microdialysis experiments. In the dorsal striatum, probes with an exposed length of 3 mm of dialysis membrane were used and in the prefrontal cortex the corresponding length was 2.5 mm. The rats were operated under isoflurane inhalation anesthesia while mounted into a Kopf stereotaxic instrument. Coordinates were calculated relative to bregma; dorsal striatum AP+1.0, ML±2.6, DV 6.2; Pf cortex, AP+3.2, ML±1.2, DV −4.0 8°, according to Paxinos and Watson (New York, Academic Press, 1986; FIG. 8 and FIG. 14). The dialysis probe was positioned in a burr hole under stereotaxic guidance and cemented with phosphatine dental cement (DAB Dental).
The rats were housed individually in cages for 48 h before the dialysis experiments, allowing them to recover from surgery and minimizing the risk of drug interactions with the anesthetics during the following experiments. During this period the rats had free access to food and water. On the day of the experiment the rats were connected to a micro-perfusion pump via a swivel and were replaced in the cage where they could move freely within its confinements. The perfusion medium was a Ringer's solution containing (in mmol/l): NaCl; 140, CaCl2); 1.2, KCl; 3.0, MgCl2; 1.0 (Moghaddam and Bunney. Neurochem., 1989, 53; 652-4). The pump was set to a perfusion speed of 2 μl/min and 40 μl sample volume were collected every 20 min.
The rats were perfused for at least 40 min before sampling began. Five fractions of each 20 min were collected and the last three were used for the establishment of the baseline. After collection of baseline fractions, the pharmacological challenge to the dialysis experiment started. Test compounds were administrated by injection (s.c.) in a volume of 5 ml/kg, with 0.9% NaCl (saline) as vehicle.
The analytical method were based on two chromatographic separations dedicated for amines or acids. Two chromatographic systems shared a common auto injector with a 10-port valve and two sample loops for simultaneous injection on the two systems.
The acids were separated by reversed phase chromatography while the amines were separated by reversed phase ion pairing chromatography preceded by a reverse phase separation in a column switching configuration. Three separation columns (Luna C18 (2), dp 3 μm, 2 mm i.d., Phenomenex) of different lengths were used. Electrochemical detection was accomplished on glassy carbon electrodes (MF-1000, Bioanalytical Systems, Inc.)
The aqueous mobile phase (0.6 ml/min) for the acid system contained citric acid (40 mM, dipotassium hydrogen phosphate 10 mM, methanol 8-11% (v/v) and EDTA 0.1 mM. Column length was 30 mm and detection potential relative to Ag/AgCl reference was 0.74V.
The aqueous ion pairing mobile phase (0.4 ml/min) for the amine system contained citric acid 5 mM, sodium citrate 10 mM, acetone 9% (v/v), tetrahydrofurane 3% (v/v), dodecane sulphonic acid 0.025 mM, and EDTA 0.1 mM. Column length was 50 mm and the preceding column was 20 mm. […]

[2] = 50 μmol/kg s.c., striatum, n=1-3
[3] = 50 μmol/kg s.c., frontal cortex, n=1-3, read-out: 5-HT FC, maximum effect compared to baseline ± SEM
[4] = 50 μmol/kg s.c., striatum, n=1-3, read-out: 5-HT Stri, maximum effect compared to baseline ± SEM
[5] = 50 μmol/kg s.c., striatum, n=1-3, read-out: DA Stri, maximum effect compared to baseline ± SEM
[6] = 50 μmol/kg s.c., frontal cortex, n=1-3, read-out: DA FC, maximum effect compared to baseline ± SEM
[7] = at the highest tested dose (100 μmol/kg s.c.)

Structure (SMILES) | locomotor activity ([1]; 11 μmol/kg s.c.) | locomotor activity ([1]; 33 μmol/kg s.c.) | locomotor activity ([1]; 100 μmol/kg s.c.) | NA Stri, maximum effect compared to baseline ± SEM (NA, DA and 5-HT; [2]) | response vs control in vivo at 50 µmol/kg (NA, DA and 5-HT; [3]) [%] | response vs control in vivo at 50 µmol/kg (NA, DA and 5-HT; [4]) [%] | response vs control in vivo at 50 µmol/kg (NA, DA and 5-HT; [5]) [%] | effect on locomotor activity (in words) ([1]; at all tested doses (11, 33, 100 μmol/kg s.c.)) | response vs control in vivo at 50 µmol/kg (NA, DA and 5-HT; [6]) [%] | effect on locomotor activity (in words) ([1]; at the two highest doses (33, 100 μmol/kg s.c.)) | effect on locomotor activity (in words) [1, 7] | response vs control in vivo at 50 µmol/kg (NA, DA and 5-HT; 50 μmol/kg s.c., frontal cortex, n=1-3, read-out: NA FC, maximum effect compared to baseline ± SEM) [%] | NA Stri, maximum effect compared to baseline ± SEM (NA, DA and 5-HT; Dose 16.7 μmol/kg s.c, striatum) | response vs control in vivo at 16.7 µmol/kg (NA, DA and 5-HT; Dose 16.7 μmol/kg s.c, frontal cortex, read-out: 5-HT FC, maximum effect compared to baseline ± SEM) [%] | response vs control in vivo at 16.7 µmol/kg (NA, DA and 5-HT; Dose 16.7 μmol/kg s.c, frontal cortex, read-out: DA FC, maximum effect compared to baseline ± SEM) [%] | response vs control in vivo at 16.7 µmol/kg (NA, DA and 5-HT; Dose 16.7 μmol/kg s.c, frontal cortex, read-out: NA FC, maximum effect compared to baseline ± SEM) [%] | response vs control in vivo at 16.7 µmol/kg (NA, DA and 5-HT; Dose 16.7 μmol/kg s.c, striatum, read-out: 5-HT Stri, maximum effect compared to baseline ± SEM) [%] | response vs control in vivo at 16.7 µmol/kg (NA, DA and 5-HT; Dose 16.7 μmol/kg s.c, striatum, read-out: DA Stri, maximum effect compared to baseline ± SEM) [%]
Fc1cccc(OC2CNC2)c1F [Example 1A, 3-(2,3-difluorophenoxy)azetidine hydrochloric acid salt] | 135 ± 17 % of control means | 163 ± 17* % of control means | 121 ± 23 % of control means | 155 ± 33^a % of control | 207 ± 49 | 217 ± 21 | 155 ± 9.6 |  |  |  |  |  |  |  |  |  |  | 
Fc1cc(F)c(F)c(OC2CNC2)c1 [Example 2, 3-(2,3,5-trifluorophenoxy)azetidine hydrochloric acid salt] | 66 ± 8** % of control means | 57 ± 5*** % of control means | 21 ± 5*** % of control means |  | 160 ± 32 | 202 ± 5.6 | 134 ± 13 | significant reduction | 600 ± 5.8 |  |  |  |  |  |  |  |  | 
Fc1cc(F)c(F)c(OC2CNC2)c1F [Example 3, 3-(2,3,5,6-tetrafluorophenoxy)-azetidine hydrochloric acid salt] | 114 ± 18 % of control means | 71 ± 26 % of control means | 44 ± 8* % of control means |  | 205 ± 78 | 197 ± 80 | 196 ± 22 |  | 735 ± 18 | significant reduction |  |  |  |  |  |  |  | 
Fc1ccc(F)c(OC2CNC2)c1F [Example 20, 3-(2,3,6-trifluorophenoxy)azetidine hydrochloric acid salt] |  |  |  |  | 164 ± 36 | 141 | 146 ± 4 |  | 441 ± 35 |  |  |  |  |  |  |  |  | 
CCN1CC(Oc2c(F)c(F)cc(F)c2F)C1 [Example 39, 1-ethyl-3-(2,3,5,6-tetrafluorophenoxy)azetidine hydrochloric acid salt] | 132 ± 14 % of control means | 103 ± 18 % of control means | 78 ± 19 % of control means | 334 ± 10^a % of control | 256 | 281 | 218 ± 18 |  | 359 |  | significant reduction | 414 |  |  |  |  |  | 
Fc1cc(F)cc(OC2CNC2)c1.O=C(O)C(O)C(O)C(=O)O [Example 52B, 3-(3,5-difluorophenoxy)azetidine (+)-tartaric acid salt] | 93 ± 15 % of control means | 30 ± 5* % of control means | 46 ± 8 % of control means |  |  |  |  |  |  |  |  |  | 151^b % of control | 213 ± 86 | 638 ± 106 | 968 ± 176 | 146 ± 18 | 120 ± 6
Fc1cc(F)cc(OC2CNC2)c1 [Example 52C, 3-(3,5-difluorophenoxy)azetidine hydrochloric acid salt] | 128 ± 25 % of control means | 74 ± 24 % of control means | 73 ± 15 % of control means | 196 ± 26^a % of control | 424 ± 119 |  | 147 ± 6 |  |  |  |  |  |  |  |  |  |  | 
Clc1ccc(OC2CNC2)cc1Cl [Reference Compound, 3-(3,4-dichlorophenoxy)azetidine hydrochloric acid salt, reference compound] | 132 ± 10 % of control means | 108 ± 23 % of control means | 323 ± 50** % of control means | 987 ± 425 % of control | 682 ± 14 |  | 136 ± 48 |  |  |  | significant increase |  |  |  |  |  |  | 
